Experiment [1] addresses T1, hMC3-R (Homo sapiens, UniProt P41968).
T1 construct: expressed in transfected cells; host or cells: CHO-K1
The experiment is described as follows: cyclic AMP bioassay, hMC3-R. It counts as cell-based.
Description: Intracellular cyclic AMP (cAMP) levels were determined by an electrochemiluminescence (ECL) assay (Meso Scale Discovery®, Gaithersburg, Md.; referred to hereinafter as MSD). […] Transgenic CHO-K1 cells stably expressing hMC receptor subtypes 1, 3, 4 or 5 were dispensed at a density of approximately 7,000 cells/well in 384-well Multi-Arrays plates (MSD) containing integrated carbon electrodes and coated with anti-CAMP antibody. Increasing concentrations of the test compounds were added and the cells were incubated for approximately 40 minutes at approximately 37° C. […] At the end of the second incubation period read buffer (Tris-buffered solution containing an ECL co-reactant and Triton X-100 at ph 7.8) was added and the cAMP levels in the cell lysates were immediately determined by ECL detection with a Sector Imager 6000 Reader® (MSD). Data were analyzed using a computer-assisted non-linear regression analysis (XL fit; IDBS) and reported as either an EC50 value or a Kb value.
The Kb value reflects the potency of an antagonist and is determined by Schild analysis. In brief, concentration-response curves of an agonist are carried out in the presence of increasing concentrations of an antagonist. […] It is calculated by extrapolating the line on a Schild plot to zero on the y-axis.

The target in experiment [2] is T2, hMC1-R (Homo sapiens, UniProt Q01726).
T2 construct: expressed in transfected cells; host or cells: CHO-K1
The experiment is described as follows: Radioligand binding assay, hMC1-R. On the procedure: (§1) Cellular membranes used for the in vitro receptor binding assays were obtained from transgenic CHO-K1 cells stably expressing hMC-R receptor subtypes 1, 3, 4 or 5. […] The pellets were resuspended in the same buffer and centrifuged at 50,000 g for 10 minutes at approximately 4° C. The washed pellets containing the cellular membranes were stored at approximately −80° C.
(§2) Filters were washed three times with 50 mM Tris-HCl at p-H 7.4 at a temperature of approximately 0-4° C. and then assayed for radioactivity using a Packard Topcount® scintillation counter. Binding data were analyzed by computer-assisted non-linear regression analysis (XL fit; IDBS).

The target of experiment [3] is T2, hMC1-R. Description: cyclic AMP bioassay, hMC1-R. It counts as cell-based.
Experiment [4] addresses T1, hMC3-R. The experiment is described as follows: Radioligand binding assay, hMC3-R. On the procedure: as §1, §2
In experiment [5] the target is T3, hMC5-R (Homo sapiens, UniProt P33032).
T3 construct: expressed in transfected cells; host or cells: CHO-K1
Description: cyclic AMP bioassay, hMC5-R. In kind it is cell-based.

Experiment [6] concerns the target T4, hMC4-R (Homo sapiens, UniProt P32245).
T4 construct: expressed in transfected cells; host or cells: CHO-K1
The experiment is described as follows: cyclic AMP bioassay, hMC4-R. In kind it is cell-based.

Experiment [7] concerns the target T4, hMC4-R. Description: Radioligand binding assay, hMC4-R. As to the method:
as §1, §2

The target of experiment [8] is T3, hMC5-R. Description: Radioligand binding assay, hMC5-R. On the procedure: as §1, §2

Where a SMILES comes first, the peptide text is derived from it. Bridges are numbered along the chain shown (N, C = ends). [ ]: non-standard residue; d: D form. 2Nal = N[C@@H](Cc1ccc2ccccc2c1)C(=O)O; d2Nal = N[C@H](Cc1ccc2ccccc2c1)C(=O)O; Aib = CC(C)(N)C(=O)O

The source of these data is US20090232838A1, “Ligands of melanocortin receptors” (priority 2005, published 2009).

T1 sequence (P41968 whole entry): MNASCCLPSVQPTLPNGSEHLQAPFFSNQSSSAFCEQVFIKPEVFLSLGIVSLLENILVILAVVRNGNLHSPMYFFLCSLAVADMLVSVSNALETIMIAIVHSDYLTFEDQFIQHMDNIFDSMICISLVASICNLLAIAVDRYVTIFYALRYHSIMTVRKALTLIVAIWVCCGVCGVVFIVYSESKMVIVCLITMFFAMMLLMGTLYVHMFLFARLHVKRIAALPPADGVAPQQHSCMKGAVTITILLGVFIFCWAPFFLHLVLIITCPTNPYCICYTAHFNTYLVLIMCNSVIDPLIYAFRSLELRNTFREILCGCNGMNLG
T2 sequence (Q01726 whole entry): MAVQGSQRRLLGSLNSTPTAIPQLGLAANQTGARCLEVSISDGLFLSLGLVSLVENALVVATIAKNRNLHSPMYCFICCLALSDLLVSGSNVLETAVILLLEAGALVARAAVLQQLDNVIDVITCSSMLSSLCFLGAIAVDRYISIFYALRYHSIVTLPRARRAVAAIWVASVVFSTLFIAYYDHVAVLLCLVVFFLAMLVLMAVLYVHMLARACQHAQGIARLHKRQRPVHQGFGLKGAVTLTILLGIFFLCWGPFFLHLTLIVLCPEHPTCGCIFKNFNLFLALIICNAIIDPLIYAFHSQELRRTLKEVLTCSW
T4 sequence (P32245 whole entry): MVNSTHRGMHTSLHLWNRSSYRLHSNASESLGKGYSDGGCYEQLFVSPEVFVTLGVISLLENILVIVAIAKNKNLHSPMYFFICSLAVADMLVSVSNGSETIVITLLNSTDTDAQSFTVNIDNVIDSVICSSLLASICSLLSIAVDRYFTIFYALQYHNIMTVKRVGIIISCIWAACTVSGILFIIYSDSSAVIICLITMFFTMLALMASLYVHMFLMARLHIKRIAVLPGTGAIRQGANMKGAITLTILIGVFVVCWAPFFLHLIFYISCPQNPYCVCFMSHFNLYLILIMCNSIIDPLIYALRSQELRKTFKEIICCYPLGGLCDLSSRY
T3 sequence (P33032 whole entry): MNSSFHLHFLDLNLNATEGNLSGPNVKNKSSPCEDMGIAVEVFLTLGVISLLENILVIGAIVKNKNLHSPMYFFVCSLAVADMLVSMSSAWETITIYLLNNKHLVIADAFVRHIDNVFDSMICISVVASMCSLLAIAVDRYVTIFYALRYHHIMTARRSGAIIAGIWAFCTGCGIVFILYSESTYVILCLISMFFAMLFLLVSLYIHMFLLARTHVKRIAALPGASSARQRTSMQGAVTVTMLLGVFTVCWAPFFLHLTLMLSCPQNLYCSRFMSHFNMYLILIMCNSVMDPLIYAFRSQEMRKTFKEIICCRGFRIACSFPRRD

For orientation: EC50 means the concentration at which the effect is half-maximal. Higher therefore signals lower potency in that assay. Usually Ki stands for the equilibrium dissociation constant of an inhibitor or competing ligand from its target. Low readings indicate higher affinity, high ones lower affinity. On to `CCCC[C@H](NC(C)=O)C(=O)N[C@H]1CSSC[C@@H](C(=O)NCCC(=O)N[C@@H](CCCNC(=N)N)C(=O)N[C@@H](CCCNC(=N)N)C(=O)N[C@@H](CCCCN)C(=O)N[C@@H](CCCNC(=N)N)C(=O)N[C@@H](CCCNC(=N)N)C(=O)N[C@@H](CCC(N)=O)C(=O)N[C@@H](CCCNC(=N)N)C(=O)N[C@@H](CCCNC(=N)N)C(=O)N[C@@H](CCCNC(=N)N)C(N)=O)NC(=O)[C@H](Cc2c[nH]c3ccccc23)NC(=O)[C@H](CCCNC(=N)N)NC(=O)[C@@H](Cc2ccccc2)NC(=O)[C@H](Cc2c[nH]cn2)NC(=O)[C@@H](C)NC1=O`, for which the EC50 on hMC3-R [1] came to 0.00139 µM; at hMC1-R [3] it was 0.00186 µM; on hMC5-R [5] it was 0.165 µM; at hMC4-R [6], 0.000367 µM. Moreover, the Ki was determined as 0.000212 µM at hMC1-R [2], 0.00123 µM on hMC3-R [4], 0.000484 µM on hMC4-R [7] and 0.0585 µM at hMC5-R [8].

Take `CCCC[C@H](NC(C)=O)C(=O)N[C@H]1CSSC[C@@H](C(=O)NCCC(=O)N[C@@H](CCCNC(=N)N)C(=O)N[C@@H](CCCCN)C(=O)N[C@@H](CCCNC(=N)N)C(=O)N[C@@H](CCCNC(=N)N)C(=O)N[C@@H](CCCNC(=N)N)C(=O)N[C@@H](CCC(N)=O)C(=O)N[C@@H](CCCNC(=N)N)C(=O)N[C@@H](CCCNC(=N)N)C(=O)N[C@@H](CCCNC(=N)N)C(N)=O)NC(=O)[C@H](Cc2c[nH]c3ccccc23)NC(=O)[C@H](CCCNC(=N)N)NC(=O)[C@@H](Cc2ccccc2)NC(=O)[C@H](Cc2c[nH]cn2)NC(=O)[C@@H](C)NC1=O`: the EC50 turned out to be 0.00161 µM at hMC3-R [1], 0.00206 µM on hMC1-R [3], 0.199 µM on hMC5-R [5] and 0.000394 µM at hMC4-R [6]. The Ki came to 0.000778 µM at hMC1-R [2], 0.00122 µM on hMC3-R [4], 0.000468 µM on hMC4-R [7] and 0.047 µM at hMC5-R [8].

Regarding `CCCC[C@H](NC(C)=O)C(=O)N[C@H]1CSSC[C@@H](C(=O)NCCC(=O)NCC(=O)N[C@@H](CCCNC(=N)N)C(=O)N[C@@H](CCCCN)C(=O)N[C@@H](CCCNC(=N)N)C(=O)N[C@@H](CCCNC(=N)N)C(=O)N[C@@H](CCCNC(=N)N)C(=O)N[C@@H](CCC(N)=O)C(=O)N[C@@H](CCCNC(=N)N)C(=O)N[C@@H](CCCNC(=N)N)C(=O)N[C@@H](CCCNC(=N)N)C(N)=O)NC(=O)[C@H](Cc2c[nH]c3ccccc23)NC(=O)[C@H](CCCNC(=N)N)NC(=O)[C@@H](Cc2ccccc2)NC(=O)[C@H](Cc2c[nH]cn2)NC(=O)[C@@H](C)NC1=O`, the 50% effective concentration (EC50) at hMC3-R [1] worked out at 0.00329 µM; on hMC1-R [3], 0.00281 µM; on hMC5-R [5], 0.566 µM; at hMC4-R [6], 0.000298 µM. The Ki at hMC3-R [4] stood at 0.00121 µM; at hMC4-R [7] it was 0.000293 µM.

Take `CC(=O)N[C@H]1CSSC[C@@H](C(=O)N2CCC[C@H]2C(=O)N2CCC[C@H]2C(=O)N[C@@H](CCCNC(=N)N)C(=O)N[C@@H](CC(=O)O)C(=O)NCCC(=O)N[C@@H](CCCNC(=N)N)C(=O)N[C@@H](CCCNC(=N)N)C(=O)N[C@@H](CCCNC(=N)N)C(=O)N[C@@H](CCCNC(=N)N)C(=O)N[C@@H](CCCNC(=N)N)C(=O)N[C@@H](CCC(N)=O)C(=O)N[C@@H](CCCNC(=N)N)C(=O)N[C@@H](CCCNC(=N)N)C(=O)N[C@@H](CCCNC(=N)N)C(N)=O)NC(=O)[C@H](C)NC(=O)[C@H](Cc2cccc3ccccc23)NC(=O)[C@H](CCCNC(=N)N)NC(=O)[C@@H](Cc2ccc3ccccc3c2)NC(=O)[C@H](Cc2c[nH]cn2)NC(=O)[C@H](CCC(=O)O)NC1=O`: the figures for the Kb at hMC3-R [1] and at hMC4-R [6] were 0.116 µM and 0.00893 µM, respectively. The concentration giving a half-maximal response (EC50) came to 0.144 µM at hMC1-R [3] and 0.819 µM on hMC5-R [5]. On hMC4-R [7], this compound gave a Ki of 0.000293 µM.

For `CC(=O)N[C@H]1CSSC[C@@H](C(=O)N2CCC[C@H]2C(=O)N2CCC[C@H]2C(=O)N[C@@H](CCCCN)C(=O)N[C@@H](CC(=O)O)C(=O)NCCC(=O)N[C@@H](Cc2ccc(O)cc2)C(=O)NCC(=O)N[C@@H](CCCNC(=N)N)C(=O)N[C@@H](CCCCN)C(=O)N[C@@H](CCCNC(=N)N)C(=O)N[C@@H](CCCNC(=N)N)C(=O)N[C@@H](CCCNC(=N)N)C(=O)N[C@@H](CCC(N)=O)C(=O)N[C@@H](CCCNC(=N)N)C(=O)N[C@@H](CCCNC(=N)N)C(=O)N[C@@H](CCCNC(=N)N)C(N)=O)NC(=O)[C@H](C)NC(=O)[C@H](Cc2cccc3ccccc23)NC(=O)[C@H](CCCNC(=N)N)NC(=O)[C@@H](Cc2ccc3ccccc3c2)NC(=O)[C@H](Cc2c[nH]cn2)NC(=O)[C@H](CCC(=O)O)NC1=O`, the Kb on hMC3-R [1] is 0.0263 µM; on hMC4-R [6], 0.0146 µM. The EC50 on hMC1-R [3] was 0.102 µM; at hMC5-R [5], 0.261 µM. Further, the Ki on hMC3-R [4] came out at 0.00161 µM.

On to `CC(=O)N[C@H]1CSSC[C@@H](C(=O)N2CCC[C@H]2C(=O)N2CCC[C@H]2C(=O)N[C@@H](CCCCN)C(=O)N[C@@H](CC(=O)O)C(=O)NCCC(=O)N[C@@H](Cc2ccc(O)cc2)C(=O)NCC(=O)N[C@@H](CCCNC(=N)N)C(=O)N[C@@H](CCCNC(=N)N)C(=O)N[C@@H](CCCCN)C(=O)N[C@@H](CCCNC(=N)N)C(=O)N[C@@H](CCCNC(=N)N)C(=O)N[C@@H](CCC(N)=O)C(=O)N[C@@H](CCCNC(=N)N)C(=O)N[C@@H](CCCNC(=N)N)C(=O)N[C@@H](CCCNC(=N)N)C(N)=O)NC(=O)[C@H](C)NC(=O)[C@H](Cc2ccc3ccccc3c2)NC(=O)[C@H](CCCNC(=N)N)NC(=O)[C@@H](Cc2ccc3ccccc3c2)NC(=O)[C@H](Cc2c[nH]cn2)NC(=O)[C@H](CCC(=O)O)NC1=O`, for which the Kb turned out to be 0.0393 µM at hMC3-R [1] and 0.0103 µM on hMC4-R [6]. The EC50 was found to be 0.0587 µM at hMC1-R [3] and 0.46 µM on hMC5-R [5]. The values for the Ki on hMC3-R [4] and at hMC5-R [8] were 0.00112 µM and 0.0153 µM, respectively.

`CC(=O)N[C@H]1CSSC[C@@H](C(=O)N2CCC[C@H]2C(=O)N2CCC[C@H]2C(=O)N[C@@H](CCCCN)C(=O)N[C@@H](CC(=O)O)C(=O)NCCC(=O)N[C@@H](CCCNC(=N)N)C(=O)N[C@@H](CCCNC(=N)N)C(=O)N[C@@H](CCCNC(=N)N)C(=O)N[C@@H](CCCNC(=N)N)C(=O)N[C@@H](CCCNC(=N)N)C(=O)N[C@@H](CCCNC(=N)N)C(=O)N[C@@H](CCC(N)=O)C(=O)N[C@@H](CCCNC(=N)N)C(=O)N[C@@H](CCCNC(=N)N)C(=O)N[C@@H](CCCNC(=N)N)C(N)=O)NC(=O)[C@H](C)NC(=O)[C@H](Cc2ccc3ccccc3c2)NC(=O)[C@H](CCCNC(=N)N)NC(=O)[C@@H](Cc2ccc3ccccc3c2)NC(=O)[C@H](Cc2c[nH]cn2)NC(=O)[C@H](CCC(=O)O)NC1=O`: the results for the Kb at hMC3-R [1] and at hMC4-R [6] were 0.0136 µM and 0.0134 µM, respectively. On hMC1-R [2], this compound displayed an inhibitory constant (Ki) of 0.00365 µM. The compound further showed a half-maximal effective concentration (EC50) on hMC1-R [3] of 0.0291 µM.

Take `CC(=O)N[C@H]1CSSC[C@@H](C(=O)N2CCC[C@H]2C(=O)N2CCC[C@H]2C(=O)N[C@@H](CCCCN)C(=O)N[C@@H](CC(=O)O)C(=O)NCCC(=O)NCC(=O)N[C@@H](CCCNC(=N)N)C(=O)N[C@@H](CCCCN)C(=O)N[C@@H](CCCNC(=N)N)C(=O)N[C@@H](CCCNC(=N)N)C(=O)N[C@@H](CCCNC(=N)N)C(=O)N[C@@H](CCC(N)=O)C(=O)N[C@@H](CCCNC(=N)N)C(=O)N[C@@H](CCCNC(=N)N)C(=O)N[C@@H](CCCNC(=N)N)C(N)=O)NC(=O)[C@H](C)NC(=O)[C@H](Cc2ccc3ccccc3c2)NC(=O)[C@H](CCCNC(=N)N)NC(=O)[C@@H](Cc2ccc3ccccc3c2)NC(=O)[C@H](Cc2c[nH]cn2)NC(=O)[C@H](CCC(=O)O)NC1=O`: the Kb on hMC3-R [1] worked out at 0.0228 µM; at hMC4-R [6], 0.0171 µM. This compound also showed an inhibitory constant (Ki) at hMC1-R [2] of 0.00566 µM. Further, the values for the EC50 on hMC1-R [3] and on hMC5-R [5] were 0.309 µM and 0.57 µM, respectively.

With `CC(=O)N[C@H]1CSSC[C@@H](C(=O)N2CCC[C@H]2C(=O)N2CCC[C@H]2C(=O)N[C@@H](CCCCN)C(=O)N[C@@H](CC(=O)O)C(N)=O)NC(=O)C(C)(C)NC(=O)[C@H](Cc2ccc3ccccc3c2)NC(=O)[C@H](CCCNC(=N)N)NC(=O)[C@@H](Cc2ccc3ccccc3c2)NC(=O)[C@H](Cc2c[nH]cn2)NC(=O)[C@H](CCC(=O)O)NC1=O` [Ac-c(Cys-Glu-His-D-2-Nal-Arg-2-Nal-Aib-Cys)-Pro-Pro-Lys-Asp-NH2] (Ac-CEH[d2Nal]R[2Nal][Aib]CPPKD-NH2; disulfide 1-8), the Kb came to 0.221 µM at hMC3-R [1] and 0.00452 µM at hMC4-R [6]. Further, the results for the EC50 at hMC1-R [3] and on hMC5-R [5] were 0.77 µM and 0.869 µM, respectively. Moreover, affinity on hMC4-R [7] was put at a Ki of 0.00587 µM.
